Data taken from ChEMBL document CHEMBL1697781, “Assessment of the health effects of chemicals in humans: II. Construction of an adverse effects database for QSAR modeling” (Curr Drug Discov Technol, 2004).

Legend:
Details in all cases: human; call rule not given here
Hepatotoxicity [1] = assay: FDA HLAED, liver enzyme composite activity
Hepatotoxicity [2] = assay: FDA HLAED, alkaline phosphatase increase
Hepatotoxicity [3] = assay: FDA HLAED, serum glutamic oxaloacetic transaminase (SGOT) increase
Hepatotoxicity [4] = assay: FDA HLAED, serum glutamic pyruvic transaminase (SGPT) increase
Hepatotoxicity [5] = assay: FDA HLAED, lactate dehydrogenase (LDH) increase
Hepatotoxicity [6] = assay: FDA HLAED, gamma-glutamyl transferase (GGT) increase
Wherever GGT Increase - Index Value is given: reference of the scale not given here.
Wherever LDH Increase - Index Value is given: reference of the scale not given here.

Row | SMILES | Composite Activity - Active (Hepatotoxicity [1]) | Composite Activity - Marginal (Hepatotoxicity [1]) | Composite Activity - Score (Hepatotoxicity [1]) | Alkaline Phosphatase Increase - Activity Score (Hepatotoxicity [2]) | Alkaline Phosphatase Increase - Index Value (Hepatotoxicity [2]) | Alkaline Phosphatase Increase - Number of Reports (Hepatotoxicity [2]) | SGOT Increase - Activity Score (Hepatotoxicity [3]) | SGOT Increase - Index Value (Hepatotoxicity [3]) | SGOT Increase - Number of Reports (Hepatotoxicity [3]) | SGPT Increase - Activity Score (Hepatotoxicity [4]) | SGPT Increase - Index Value (Hepatotoxicity [4]) | SGPT Increase - Number of Reports (Hepatotoxicity [4]) | LDH Increase - Activity Score (Hepatotoxicity [5]) | LDH Increase - Index Value (Hepatotoxicity [5]) | LDH Increase - Number of Reports (Hepatotoxicity [5]) | GGT Increase - Activity Score (Hepatotoxicity [6]) | GGT Increase - Index Value (Hepatotoxicity [6]) | GGT Increase - Number of Reports (Hepatotoxicity [6]) | further results
1 | Cc1cn([C@H]2C=C[C@@H](CO)O2)c(=O)[nH]c1=O [STAVUDINE] | 2 | 1 | Active | Inactive | 2.4 | >= 4 | Active | 9.1 | >= 4 | Active | 9.7 | >= 4 | Inactive | 1.8 | < 4 | Marginally Active | 3.6 | >= 4 | –
2 | Cc1ccccc1N1CCN(CCc2nnc3n2CCCC3)CC1 [DAPIPRAZOLE] | 0 | 0 | Inactive | Inactive | 0 | < 4 | Inactive | 0 | < 4 | Inactive | 0 | < 4 | Inactive | 0 | < 4 | Inactive | 0 | < 4 | –
3 | COc1ccc([C@@H]2Sc3ccccc3N(CCN(C)C)C(=O)[C@@H]2OC(C)=O)cc1 [DILTIAZEM] | 0 | 0 | Inactive | Inactive | 0.1 | < 4 | Inactive | 0.3 | >= 4 | Inactive | 0.1 | < 4 | Inactive | 0.1 | < 4 | Inactive | 0 | < 4 | –
4 | CC(C)NCC(O)COc1ccc(CCOCC2CC2)cc1 (configuration not stated) [BETAXOLOL] | – | – | – | Inactive | 0 | < 4 | Inactive | 0 | < 4 | Inactive | 0 | < 4 | Inactive | 0 | < 4 | Inactive | 0 | < 4 | Composite Activity - Active (Hepatotoxicity [1]; Liver): 0; Composite Activity - Marginal (Hepatotoxicity [1]; Liver): 0; Composite Activity - Score (Hepatotoxicity [1]; Liver): Inactive
5 | CCCN1C[C@H](CSC)C[C@@H]2c3cccc4[nH]cc(c34)C[C@H]21 [PERGOLIDE] | 0 | 0 | Inactive | Inactive | 1.3 | < 4 | Inactive | 3.9 | < 4 | Inactive | 3.9 | < 4 | Inactive | 0 | < 4 | Inactive | 0 | < 4 | –
6 | CC(=O)O[C@H]1C[C@@H]2CC[C@@H]3[C@H](CC[C@@]4(C)[C@H]3C[C@H](N3CC[N+](C)(C)CC3)[C@@H]4OC(C)=O)[C@@]2(C)C[C@@H]1N1CC[N+](C)(C)CC1.[Br-].[Br-] [PIPECURONIUM BROMIDE] | 0 | 0 | Inactive | Inactive | 0 | < 4 | Inactive | 0 | < 4 | Inactive | 0 | < 4 | Inactive | 0 | < 4 | Inactive | 0 | < 4 | –
7 | Cc1ccc(C(=O)Oc2ccc(C(O)CNC(C)(C)C)cc2OC(=O)c2ccc(C)cc2)cc1 (configuration not stated) [BITOLTEROL] | 0 | 0 | Inactive | Inactive | 0 | < 4 | Inactive | 0 | < 4 | Inactive | 0 | < 4 | Inactive | 0 | < 4 | Inactive | 0 | < 4 | –
8 | CCc1nn(CCCN2CCN(c3cccc(Cl)c3)CC2)c(=O)n1CCOc1ccccc1 [NEFAZODONE] | 0 | 2 | Inactive | Inactive | 1.1 | >= 4 | Marginally Active | 3.6 | >= 4 | Marginally Active | 3.3 | >= 4 | Inactive | 1.1 | >= 4 | Inactive | 1.1 | >= 4 | –
9 | CCCCCCC(C)(C)c1cc(O)c2c(c1)OC(C)(C)C1CCC(=O)CC21 (configuration not stated) [NABILONE] | 0 | 0 | Inactive | Inactive | 0 | < 4 | Inactive | 0 | < 4 | Inactive | 0 | < 4 | Inactive | 0 | < 4 | Inactive | 0 | < 4 | –
